Our source for the IC50 values is US9346810B2, “Pyrrolopyrimidine compounds and uses thereof” (HUTCHISON MEDIPHARMA LIMITED, priority 2010, dated 2016).

Format in all cases: biochemical
Assay [1] has as its target Recombinant human JAK1 catalytic domain (Homo sapiens (Human), UniProt P23458). Put plainly: JAK1 kinase assay (Z'-LYTE, Tyr 6 Peptide). The method, then:
(§1) JAK1/2/3 kinase assay are performed in vitro using Kit-Tyr 6 Peptide (Invitrogen, Cat. No. PV4122). TYK2 kinase assay are performed in vitro using Z′-LYTE™ Kinase Assay Kit-Tyr 3 Peptide (Invitrogen, Cat. No. PV3192). […] All compounds are initially tested at 8 different concentrations (1 μM down to 0.0003 μM) using a 1:3 serial dilution scheme.

Assay [2] deals with Recombinant human JAK2 catalytic domain (Homo sapiens (Human), UniProt O60674). Put plainly: JAK2 kinase assay (Z'-LYTE, Tyr 6 Peptide). The conditions noted are these: read-out: IC50 in JAK2 kinase assay. As to the method: as §1
Recombinant human JAK2 catalytic domain, sequence (O60674 849-1124): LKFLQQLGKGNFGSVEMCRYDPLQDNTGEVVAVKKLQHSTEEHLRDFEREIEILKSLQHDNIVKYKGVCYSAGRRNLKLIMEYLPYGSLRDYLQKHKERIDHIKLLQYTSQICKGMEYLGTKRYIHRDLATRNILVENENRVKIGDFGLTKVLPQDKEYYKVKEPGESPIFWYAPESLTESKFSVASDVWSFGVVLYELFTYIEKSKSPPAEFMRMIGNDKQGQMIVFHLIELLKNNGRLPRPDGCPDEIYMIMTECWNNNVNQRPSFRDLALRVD
Assay [3] deals with Recombinant human JAK3 catalytic domain (Homo sapiens (Human), UniProt P52333). Put plainly: JAK3 kinase assay (Z'-LYTE, Tyr 6 Peptide). As to the method:
as §1

Where [4] appears, read: read-out: IC50 in JAK1 kinase assay.
The mark [5] stands for this setting: read-out: IC50 in JAK3 kinase assay.

Each structure is given as a SMILES string. Read-outs that look alike come from different tables or passages of the source.

Recombinant human JAK3 catalytic domain, sequence (P52333 822-1111): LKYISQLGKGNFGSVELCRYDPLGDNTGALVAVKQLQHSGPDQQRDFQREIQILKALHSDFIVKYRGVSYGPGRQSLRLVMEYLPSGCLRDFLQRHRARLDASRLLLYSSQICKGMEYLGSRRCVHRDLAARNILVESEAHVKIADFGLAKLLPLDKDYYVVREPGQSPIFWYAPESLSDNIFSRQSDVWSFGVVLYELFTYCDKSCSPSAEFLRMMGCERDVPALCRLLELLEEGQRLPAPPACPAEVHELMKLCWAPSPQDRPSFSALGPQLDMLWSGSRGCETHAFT
Recombinant human JAK1 catalytic domain, sequence (P23458 875-1153): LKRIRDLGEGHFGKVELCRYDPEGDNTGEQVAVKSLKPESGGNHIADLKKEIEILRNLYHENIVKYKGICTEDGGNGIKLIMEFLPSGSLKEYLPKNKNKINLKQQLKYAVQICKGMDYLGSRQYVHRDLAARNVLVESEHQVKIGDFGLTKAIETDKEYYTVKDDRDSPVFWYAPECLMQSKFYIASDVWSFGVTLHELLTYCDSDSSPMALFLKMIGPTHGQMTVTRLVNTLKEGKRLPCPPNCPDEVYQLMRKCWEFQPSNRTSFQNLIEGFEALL

With `CN(c1ccc(S(=O)(=O)NC2CC2)cn1)[C@@H]1CCN(c2ncnc3[nH]ccc23)C1` [Compound 236], the IC50 in assay [1] (setting [4]), in assay [2] and in assay [3] (setting [5]) was 0.001 to 0.1 µM in each case.
Consider `COc1nc(N(C)[C@@H]2CCN(c3ncnc4[nH]ccc34)C2)ccc1C#N` [Compound 42], for which the IC50 in assay [1] (setting [4]), in assay [2] and in assay [3] (setting [5]) was 0.001 to 0.1 µM in each case.
Take `CN(c1ccnc(C#N)c1)[C@@H]1CCN(c2ncnc3[nH]ccc23)C1` [Compound 121]: the IC50 in assay [1] (setting [4]), in assay [2] and in assay [3] (setting [5]) was 0.001 to 0.1 µM each time.
As to `CN(c1ccc(Cl)cn1)[C@@H]1CCN(c2ncnc3[nH]ccc23)C1` [Compound 67], the IC50 in assay [1] (setting [4]), in assay [2] and in assay [3] (setting [5]) was 0.001 to 0.1 µM each time.
As to `CN(c1ccc(C(=O)Nc2nccs2)cn1)[C@@H]1CCN(c2ncnc3[nH]ccc23)C1` [Compound 199], the IC50 (as a rule, the midpoint of a concentration-inhibition curve) was 0.014 µM in assay [1] (read-out: JAK1 (enzyme, IC50)) and 0.522 µM in assay [3] (read-out: JAK3 (enzyme, IC50)).
For the compound `COc1cc2ncnc(N(C)[C@@H]3CCN(c4ncnc5[nH]ccc45)C3)c2cc1OC` [Compound 86], the IC50 fell in the range of 0.001 to 0.1 µM in assay [1] (setting [4]), 0.001 to 0.1 µM in assay [2] and 0.1 to 1 µM in assay [3] (setting [5]).
Regarding `Cc1cc(N(C)[C@@H]2CCN(c3ncnc4[nH]ccc34)C2)ncc1[N+](=O)[O-]` [Compound 77], the IC50 in assay [1] (setting [4]) is 0.001 to 0.1 µM; in assay [2] it was 0.1 to 1 µM; in assay [3] (setting [5]), 0.1 to 1 µM.
For `CN(c1cc2cn[nH]c2cn1)[C@@H]1CCN(c2ncnc3[nH]ccc23)C1` [Compound 125, (R)—N-(1-(7H-pyrrolo[2,3-d]pyrimidin-4-yl)pyrrolidin-3-yl)-N-methyl-1H-pyrazolo[3,4-c]pyridin-5-amine], the IC50 in assay [1] (setting [4]) and in assay [2] was 0.001 to 0.1 µM each time.
In the case of `CN(c1ccc(NS(C)(=O)=O)cn1)[C@@H]1CCN(c2ncnc3[nH]ccc23)C1` [Compound 217], the IC50 in assay [1] (setting [4]) was 0.001 to 0.1 µM; in assay [2] it was 0.1 to 1 µM.
The matching figures for `Cc1nc(N(C)[C@@H]2CCN(c3ncnc4[nH]ccc34)C2)ccc1C#N` [Compound 155]: 0.001 to 0.1 µM and 0.001 to 0.1 µM.
The matching figures for `CN(c1ccc(S(=O)(=O)NC2CCOCC2)cn1)[C@@H]1CCN(c2ncnc3[nH]ccc23)C1` [Compound 259]: 0.001 to 0.1 µM and 0.1 to 1 µM.
Consider `N#Cc1ccc(N(CC2CC2)[C@@H]2CCN(c3ncnc4[nH]ccc34)C2)nc1` [Compound 124], for which the IC50 in assay [1] (setting [4]) and in assay [2] was 0.001 to 0.1 µM each time.
In the case of `CN(c1ccc(S(=O)(=O)NC[C@H]2CCCO2)cn1)[C@@H]1CCN(c2ncnc3[nH]ccc23)C1` [Compound 241], the IC50 in assay [1] (setting [4]) and in assay [2] was 0.001 to 0.1 µM each time.
For `CN(c1ccc(C#N)cc1)[C@@H]1CCN(c2ncnc3[nH]ccc23)C1` [Compound 104], the IC50 in assay [1] (setting [4]) lay within 0.001 to 0.1 µM; in assay [2], 0.001 to 0.1 µM; in assay [3] (setting [5]), 0.1 to 1 µM.
For the compound `CN(c1ccc(S(=O)(=O)C(F)(F)F)cc1)[C@@H]1CCN(c2ncnc3[nH]ccc23)C1` [Compound 122], the IC50 in assay [1] (setting [4]) and in assay [2] was 0.001 to 0.1 µM throughout.
As to `CN(c1ccc(S(=O)(=O)NCCO)cn1)[C@@H]1CCN(c2ncnc3[nH]ccc23)C1` [Compound 243], the IC50 is 0.001 to 0.1 µM in assay [1] (setting [4]) and 0.1 to 1 µM in assay [2].
With `CN(c1ccc(C(F)(F)F)cn1)[C@@H]1CCN(c2ncnc3[nH]ccc23)C1` [Compound 123], the IC50 in assay [1] (setting [4]) and in assay [2] was 0.001 to 0.1 µM throughout.
For the compound `C#CCN(c1ccc(C#N)cn1)[C@@H]1CCN(c2ncnc3[nH]ccc23)C1` [Compound 128], the IC50 in assay [1] (setting [4]) and in assay [2] was 0.001 to 0.1 µM throughout.
Take `CN(c1ccc(-c2nn[nH]n2)cc1F)[C@@H]1CCN(c2ncnc3[nH]ccc23)C1` [Compound 161]: the IC50 in assay [1] (setting [4]) and in assay [2] was 0.001 to 0.1 µM in each case.
On to `CN(c1ccc(S(=O)(=O)NC2COC2)cn1)[C@@H]1CCN(c2ncnc3[nH]ccc23)C1` [Compound 242], for which the IC50 in assay [1] (setting [4]) and in assay [2] was 0.001 to 0.1 µM each time.
